In ChEMBL document CHEMBL5046245, “Identification of Pyruvate Carboxylase as the Cellular Target of Natural Bibenzyls with Potent Anticancer Activity against Hepatocellular Carcinoma via Metabolic Reprogramming” (J Med Chem, 2022):
Activity calls are given as the source filed them. The rule behind the calls is not given here.

Key:
HepG2 [1] = assay: Antiproliferative activity against human HepG2 cells assessed as inhibition of cell growth measured after 48 hrs by MTT assay; assay type: functional, cell-based; conditions: HepG2, 48 h
SK-HEP1 [2] = assay: Antiproliferative activity against human SK-HEP1 cells assessed as inhibition of cell growth measured after 48 hrs by MTT assay; assay type: functional, cell-based; conditions: SK-HEP1, 48 h
[3] = Antiproliferative activity against human HCCLM3 cells assessed as inhibition of cell growth measured after 48 hrs by MTT assay; assay type: functional, cell-based; conditions: HCCLM3, 48 h
HepG2 [4] = assay: Antiproliferative activity against human HepG2 cells assessed as inhibition of cell growth at 10 to 200 nM measured up to 3 days by MTT assay; assay type: functional, cell-based; conditions: dose 10-200 nM, time day <=3, TDE = time-dependent effect
HepG2 [5] = assay: Effect on cell cycle arrest in human HepG2 cells assessed as increase accumulation of cells in G2/M phase at 20 nM measured upto 24 hrs hrs by propidium iodide staining based flow cytometry analysis; assay type: functional; conditions: time hrs <=24, TDE = time-dependent effect
HCCLM3 [6] = assay: Antimigratory activity in human HCCLM3 cells assessed as inhibition of scratch closure at 0.05 to 1 nM measured after 24 hrs by […] assay; assay type: functional, cell-based; conditions: dose 0.05-1 nM
HCCLM3 [7] = assay: Inhibition of epithelial-mesenchymal transition in human HCCLM3 cells assessed as upregulation of E-cadherin expression at 0.05 to 1 nM incubated for 24 hrs by Western blot analysis; assay type: functional, cell-based; conditions: dose 0.05-1 nM
HCCLM3 [8] = assay: Inhibition of epithelial-mesenchymal transition in human HCCLM3 cells assessed as decrease in fibronectin expression level at 0.05 to 1 nM incubated for 24 hrs by Western blot analysis; assay type: functional, cell-based; conditions: dose 0.05-1 nM
HepG2 [9] = assay: Induction of apoptosis in human HepG2 cells assessed as nuclear condensation at 100 nM incubated for 24 hrs by DAPI staining based phase contrast microscopic analysis; assay type: functional, cell-based
HepG2 [10] = assay: Induction of apoptosis in human HepG2 cells assessed as increase cleaved PARP level measured after 24 hrs by Western blot analysis; assay type: functional, cell-based; conditions: dose 10-40 nM
HepG2 [11] = assay: Induction of caspase-mediated apoptosis in human HepG2 cells assessed as reduction in cell viability at 100 to 400 nM incubated for 48 hrs in presence of Z-VAD-FMK by MTT assay; assay type: functional, cell-based; conditions: dose 100-400 nM
HCCLM3 [12] = assay: Antitumor activity against human HCCLM3 cells xenografted in NCR-nu/nu mouse assessed reduction in tumor growth at 25 to 50 mg/kg, ip administered alternate days for 21 days and measured 26 days post implantation; assay type: functional, organism-based; conditions: dose 25-50 mg/kg, time 21.0 day
HepG2 [13] = assay: Antitumor activity against human HepG2 cells xenografted in NCR-nu/nu mouse assessed wet tumor weight at 50 mg/kg, ip administered alternate days for 21 days and measured 26 days post implantation (Rvb= 0.92 +/- 0.13 g); assay type: functional; conditions: time 21 day
HCCLM3 [14] = assay: Induction of apoptosis in human HCCLM3 cells xenografted in NCR-nu/nu mouse assessed as increase in total apoptotic cells in tumor at 25 to 50 mg/kg, ip administered alternate days for 21 days and measured 26 days post implantation by TUNEL staining based confocal microscopic analysis; assay type: functional, organism-based; conditions: dose 25-50 mg/kg, time 21.0 day
[15] = Systemic toxicity in NCR-nu/nu mouse bearing human HCCLM3 tumor assessed as pathological change in kidney at 25 to 50 mg/kg, ip administered alternate days for 21 days and measured 26 days post implantation by H and E staining based analysis; assay type: organism-based; conditions: in vivo, 504 h, dose 25-50 mg/kg, time 21 day
HepG2 [16] = assay: Cytotoxicity against human HepG2 cells assessed as cell viability at 62.5 to 250 nM preincubated for 48 hrs by MTT assay; assay type: functional, cell-based; conditions: dose 62.5-250 nM
[17] = Inhibition of pyruvate carboxylase in human HCCLM3 cells measured upto 24 hrs by PC assay kit; assay type: cell-based
[18] = Inhibition of pyruvate carboxylase in human HepG2 cell lysate measured upto 24 hrs by PC assay kit; assay type: subcellular
HepG2 [19] = assay: Inhibition of pyruvate carboxylase in human HepG2 cells measured at 10 nM upto 24 hrs; assay type: cell-based; conditions: time hrs <=24
HepG2 [20] = assay: Inhibition of pyruvate carboxylase in human HepG2 cells measured at 0.001 to 10 nM for 24 hrs; assay type: cell-based; conditions: dose 0.001-10 nM
HepG2 [21] = assay: Cytotoxicity against PC knockout human HepG2 cells assessed as reduction in cell viability at 20 to 100 nM measured after 48 hrs by MTT assay; assay type: functional, cell-based; conditions: dose 20-100 nM
SK-HEP1 [22] = assay: Antiproliferative activity against human SK-HEP1 cells transfected with PC-flag plasmid assessed as reduction in cell viability incubated for 48 hrs by MTT assay; assay type: functional, cell-based
SK-HEP1 [23] = assay: Antimigratory activity in human SK-HEP1 cells overexpressing PC assessed as suppression of cell migration at 0.5 nM measured after 48 hrs by wound healing assay; assay type: functional, cell-based
[24] = target: AMP-activated protein kinase, AMPK (Homo sapiens) (UniProt P54646+O43741+P54619+Q9UGJ0+Q9Y478+Q13131+Q9UGI9); assay: Activation of AMPK pathway in human HCCLM3 cells assessed as increase in AMPK phosphorylation level at 5 nM measured after 1 hr by Western blot analysis; assay type: cell-based; conditions: filed as activator
HCCLM3 [25] = assay: Induction of glycolysis in human HCCLM3 cells assessed as decrease in level of fumarate at 5 nM; assay type: functional, cell-based
HCCLM3 [26] = assay: Induction of glycolysis in human HCCLM3 cells assessed as decrease in level of succinate at 5 nM; assay type: functional, cell-based
HCCLM3 [27] = assay: Induction of glycolysis in human HCCLM3 cells assessed as decrease in level of L-lactate at 5 nM; assay type: functional, cell-based
HCCLM3 [28] = assay: Induction of glycolysis in human HCCLM3 cells assessed as decrease in level of ATP at 5 nM; assay type: functional, cell-based
HCCLM3 [29] = assay: Induction of glycolysis in human HCCLM3 cells assessed as decrease in level of malate at 5 nM; assay type: functional, cell-based
HCCLM3 [30] = assay: Induction of glycolysis in human HCCLM3 cells assessed as decrease in level of serine at 5 nM; assay type: functional, cell-based
HCCLM3 [31] = assay: Induction of glycolysis in human HCCLM3 cells assessed as decrease in level of aspartate at 5 nM; assay type: functional, cell-based
HCCLM3 [32] = assay: Induction of mitochondrial oxidative stress in human HCCLM3 cells overexpressing PC assessed as accumulation of ROS at 10 nM by DCFH-DA staining based flow cytometry analysis; assay type: functional, cell-based
HCCLM3 [33] = assay: Inhibition of mitochondrial oxidative stress in PC knockout human HCCLM3 cells assessed as reduction in […] ratio at 10 nM; assay type: functional, cell-based
HCCLM3 [34] = assay: Induction of apoptosis in human HCCLM3 cells assessed as cell rounding at 20 nM incubated for 24 hrs by DAPI staining based phase contrast microscopic analysis; assay type: functional
HCCLM3 [35] = assay: Induction of apoptosis in human HCCLM3 cells assessed as cell shrinkage at 20 nM incubated for 24 hrs by DAPI staining based phase contrast microscopic analysis; assay type: functional
HCCLM3 [36] = assay: Induction of apoptosis in human HCCLM3 cells assessed as nuclear condensation at 20 nM incubated for 24 hrs by DAPI staining based phase contrast microscopic analysis; assay type: functional, cell-based
[37] = Antitumor activity against human HCCLM3 cells xenografted in NCR-nu/nu mouse assessed wet tumor weight at 50 mg/kg, ip administered alternate days for 21 days and measured 26 days post implantation (Rvb= 1.835 +/- 0.15 g); assay type: functional; conditions: time 21 day

SMILES: COc1ccc(CCc2cc(OC)c(OC)c(OC)c2)cc1O
- IC50 (HepG2 [1]): 99.3 nM
- IC50 (SK-HEP1 [2]): 757 nM
- IC50 [3]: 17.7 nM
- Activity (HepG2 [4]): Tde
- Activity (HepG2 [5]): Tde
- Activity (HCCLM3 [6]): Active
- inhibition (HCCLM3 [7]): Active
- inhibition (HCCLM3 [8]): Active
- Activity (HepG2 [9]): Active
- Activity (HepG2 [10]): Dose-Dependent Effect
- Activity (HepG2 [11]): inactive
- Activity (HCCLM3 [12]): Active
- Activity (HepG2 [13]): 0.32 g
- Activity (HCCLM3 [14]): Active
- Activity [15]: Non-Toxic
- Activity (HepG2 [16]): Active
- IC50 [17]: 13.1 µM
- IC50 [18]: 7.18 nM
- inhibition (HepG2 [19]): inactive
- inhibition (HepG2 [20]): inactive
- Activity (HepG2 [21]): inactive
- Activity (SK-HEP1 [22]): Active
- Activity (SK-HEP1 [23]): Active
- Activity [24]: Active
- Activity (HCCLM3 [25]): Active
- Activity (HCCLM3 [26]): Active
- Activity (HCCLM3 [27]): Active
- Activity (HCCLM3 [28]): Active
- Activity (HCCLM3 [29]): Active
- Activity (HCCLM3 [30]): Active
- Activity (HCCLM3 [31]): Active
- Activity (HCCLM3 [32]): inactive
- inhibition (HCCLM3 [33]): Active
- Activity (HCCLM3 [34]): Active
- Activity (HCCLM3 [35]): Active
- Activity (HCCLM3 [36]): Active
- Activity [37]: 0.695 g
